What was measured:
[1] = molecular target: T1, EcDsbA (Escherichia coli, UniProt P0AEG4); test: Compound soaking into EcDsbA crystals and X-ray diffraction; format: binding; conditions: crystals soaked with compound at 10 mM (5% DMSO) for 3–6 h
T1 construct: made in house; protein recovered from the periplasm of the expressing cells
From the text: The synthesised analogues were soaked into crystals of EcDsbA and X-ray diffraction data was collected for each analogue in order to determine their site of binding. […] The carboxy moiety of 15 was oriented towards the left-hand side of the binding groove, where more polar residues are located. The phenyl ring of the aniline moiety occupied the hydrophobic end of the binding pocket with the nitrogen atom of the amine linker positioned in close proximity to Gln35. […] Although anisidine 16 was occupying a larger region of the EcDsbA binding groove, the shift appeared to have interrupted the π-stacking interactions the benzofuran was making with the His32 side chain previously (Figure 1B and Figure S1).
EcDsbA was crystallised as previously described. Briefly, 1 µL of 30 mg/mL EcDsbA was mixed with an equal volume of crystallisation buffer (11–13% PEG8000, 5–7.5% glycerol, 1 mM CuCl2, 100 mM, sodium cacodylate pH 6.1) and equilibrated against 500 µL of reservoir buffer at 20 °C using hanging drop vapour diffusion. For compound soaking, crystals were transferred into 2 µL drops of 24% PEG8000, 22% glycerol, and 100 mM sodium cacodylate (pH 6.1) containing a compound of interest at the final concentration of 10 mM (5% DMSO) and were incubated for 3–6 h. Crystals were mounted on loops and flash-cooled in liquid nitrogen.
Datasets were collected at the Australian synchrotron on MX1 and MX2 beamlines using the Blue-Ice software (Irvine, CA, USA). MX1 beamline was equipped with an ADSC Quantum 210r detector and MX2 with an ADSC Quantum 315r detector. All datasets were indexed and integrated with iMOSFLM [32] or XDS [33]—and scaled using AIMLESS [34, 35] or SCALA [36]. Phasing was performed by molecular replacement with Phaser using the previously solved structure of EcDsbA as a search model (PDB code 1FVK). The final structure was obtained after several rounds of manual model building using Coot and refinement in phenix.refine. Structures, factors and coordinates have been deposited in the Protein Data Bank (PDB; http://www.pdb.org) under the accession codes of 6PMF, 6POQ, 6POH, 6PML, 6PVY, 6POI, and 6PVZ.

[2] = molecular target: T1, EcDsbA; test: STD ligand-detected NMR binding; conditions: compound 500 µM, unlabelled EcDsbA 10 µM, 298 K
From the text: (§1) To validate the binding of benzofuran analogues, three ligand-detected NMR methods, saturation-transfer difference (STD), Carr–Purcell–Meiboom–Gill (CPMG), and water–ligand observed via gradient spectroscopy (waterLOGSY), were employed to detect protein-ligand binding between the benzofurans and EcDsbA (Figure 2C). These experiments were designed as a primary screening tool to select analogues to undergo further affinity evaluation and prioritise compounds for crystal soaking. […] In a good agreement with this finding, eight out of nine benzofurans that passed all three ligand-detected experiments have their co-crystal structures successfully solved; in contrast, five compounds that failed two ligand-detected experiments only have one co-structure solved (Table 2).
(§2) For ligand-detected NMR spectroscopy, two samples (compound alone and compound + protein) were prepared for each compound. Unlabelled EcDsbA was prepared at 10 µM in a buffer of 50 mM sodium phosphate, pH 6.8, 25 mM NaCl, 100 µM 4,4-dimethyl 4-silapentane-1-sulfonic acid (DSS), and 10% ^2H2O. Compound was added to the protein sample to achieve final concentration of 500 µM (2% ^2H6-DMSO). ^1H 1D spectrum was acquired for each compound at 500 µM as a reference spectrum. All ligand-detected NMR experiments (STD, CPMG, and waterLOGSY) were acquired at 298 K on a Bruker Avance III 600 MHz NMR spectrometer equipped with a 5 mm TXI CryoProbe (Bruker, Billerica, MA, USA). STD spectra were acquired with 3 s of saturation at 1 ppm (on-resonance) and 33.3 ppm (off-resonance). WaterLOGSY spectra were acquired for compound alone and compound + protein with a 0.52 s acquisition time, 3 s relaxation delay, and 3 s Nuclear Overhauser effect (NOE) mixing time. CPMG spectra for compound alone and compound + protein were acquired with a constant spin echo delay of 1 ms and spin-lock period of 350 ms. The data was analysed using Topspin3.5 (Bruker) and DSS was used to reference the spectra.

[3] = molecular target: T1, EcDsbA; test: waterLOGSY ligand-detected NMR binding; conditions: compound 500 µM, unlabelled EcDsbA 10 µM, 298 K
From the text: as §1, §2

[4] = molecular target: T1, EcDsbA; test: CPMG ligand-detected NMR binding; conditions: compound 500 µM, unlabelled EcDsbA 10 µM, 298 K, spin-lock 350 ms
From the text: as §1, §2

[5] = Solubility noted in the HSQC titration; format: physicochemical; conditions: HSQC titration buffer
From the text: The ligand efficiency (LE) ranged from 0.15 to 0.24 kcal mol^−1 HAC^−1. […] Biophysical characterisation of 25 is illustrated in Figure 2. […] Alkyl substituents at C-6 flipped the compound orientation within the hydrophobic groove and disrupt the polar interaction between the imidazole side chain of His32 and carboxyl group of the compound present in the 25 co-structure (Figure 1C). […] It was evident in the co-crystal structure of p-anisidine 16 that the p-methoxy group had caused the benzofuran scaffold to shift further along the hydrophobic groove, possibly disrupting the π-stacking interaction with His32 and polar interactions with Gln164 (Figure 1B).

[6] = molecular target: T2, 15N-labelled EcDsbA (Escherichia coli, UniProt P0AEG4); test: 2D 1H-15N HSQC chemical shift perturbation / titration; format: binding
T2 construct: made in house; protein recovered from the periplasm of the expressing cells
T2 sequence (P0AEG4 20-208): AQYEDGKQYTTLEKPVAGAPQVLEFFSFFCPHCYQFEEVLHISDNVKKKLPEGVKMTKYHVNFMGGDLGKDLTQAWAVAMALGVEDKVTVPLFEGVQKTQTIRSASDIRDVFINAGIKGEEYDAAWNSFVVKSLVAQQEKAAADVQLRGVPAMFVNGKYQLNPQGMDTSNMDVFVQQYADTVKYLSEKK
Method: Compounds that passed at least one ligand-detected NMR experiment were further validated by 2D ^1H-^15N heteronuclear single quantum coherence (HSQC) spectroscopy. In HSQC experiments, chemical shift perturbations (CSP) of backbone amide resonances of ^15N-labelled EcDsbA were measured upon addition of compound at 1 mM. […] In accordance with the crystal structure, the majority of the residues perturbed by 1 mM of benzofuran analogues in single-point HSQCs are located around the hydrophobic groove which is an important binding site for DsbA substrates (Figure 2A). […] Eight compounds produced large enough CSP (>0.04 ppm) to enable HSQC titration and KD determination.
For the 2D ^1H-^15N-HSQC titration experiment, 100 µM of ^15N-labelled EcDsbA in a buffer of 50 mM HEPES, pH 6.8, 50 mM NaCl, 2% ^2H6-DMSO, and 10% ^2H2O, was titrated with increasing concentrations of compounds ([…], 0.125, 0.25, 0.5, and 1 mM). Data were acquired on a Bruker 600 MHz spectrometer equipped with a 5 mm TXI CryoProbe and a Bruker 700 MHz spectrometer equipped with a 5 mm TXI CryoProbe. Data was processed by Topspin3.5 (Bruker) and analysed by Sparky (T. D. Goddard and D. G. Kneller, SPARKY 3, University of California, San Francisco (UCSF)). Weighted chemical shift perturbations (CSP) that were observed upon addition of compounds to EcDsbA were calculated using an Equation (1) in [41]: (1) CSP=ΔδH^2+(0.2×ΔδN)^2 where ΔδH and ΔδN denote the change in chemical shift of amide proton and nitrogen resonances upon addition of the compound. Equilibrium dissociation constants (KD) were determined by fitting the plot of CSP against compound concentrations using one site with ligand depletion model (Equation (2)): (2) CSP=CSPmax×[(KD+Pt+Lt)−((KD+Pt+Lt)^2−4×Pt×Lt)]/2×Pt where CSP is the measured CSP at a given concentration, CSPmax is the CSP observed at the saturating concentration of compound, and Pt and Lt are the total protein and compound concentrations. The ligand efficiency (LE) is calculated using the Equation (3) in [42]: (3) LE=−ΔG/HAC=−RTln(KD)/HAC where R is gas constant (1.9858775 cal K^−1 mol^−1), T is temperature (298 K), KD is equilibrium dissociation constant, and HAC is the number of heavy (non-hydrogen) atoms.

T1 sequence (P0AEG4 20-208): as above

Structure (SMILES)	Crystal Structure in EcDsbA [1]	STD [2]	wLOGSY [3]	CPMG [4]	solubility [5]	melting point	Kd [6]
O=C(O)Cc1coc2cc(Nc3ccccc3)ccc12 [compound 15, 2-(6-(Phenylamino)benzofuran-3-yl)acetic acid]	Yes	Pass	Pass	Pass	poor solubility	127 to 130 °C	–
O=C(Cc1ccccc1F)NC(C(=O)O)c1coc2cc(Br)ccc12 (stereo not drawn) [compound 49, 2-(6-Bromobenzofuran-3-yl)-2-(2-(2-fluorophenyl)acetamido)acetic acid]	No	Fail	Pass	Fail	–	209 to 211 °C	> 1000 µM

Source: publication PMC6832960, “The Fragment-Based Development of a Benzofuran Hit as a New Class of Escherichia coli DsbA Inhibitors” (Molecules, 2019)
